Experimental data taken from patent US10844064B2, “sGC stimulators” (Cyclerion Therapeutics, Inc., priority 2014, dated 2020).
Where “and” joins values, the source holds several entries; their conditions need not be identical. Equal values may be shown once.

How the values were obtained:
sGC enzyme = biological target: T1, sGC enzyme (Homo sapiens, UniProt Q02108+Q02153); experiment: cGMP GloSensor cell-based assay, 384-well format (Example 2B); conditions: HEK293 GloSensor 40F cGMP cells, 10 μM DETA-NONOate; 50% of high control response (Compound Y); read-out: sGC_HEK_GloSensor EC50/IC50 Abs (Norm) (nM) Binned
T1 construct: host or cells: HEK293 expressing GloSensor 40F cGMP
T1 sequence (Q02108 1-690): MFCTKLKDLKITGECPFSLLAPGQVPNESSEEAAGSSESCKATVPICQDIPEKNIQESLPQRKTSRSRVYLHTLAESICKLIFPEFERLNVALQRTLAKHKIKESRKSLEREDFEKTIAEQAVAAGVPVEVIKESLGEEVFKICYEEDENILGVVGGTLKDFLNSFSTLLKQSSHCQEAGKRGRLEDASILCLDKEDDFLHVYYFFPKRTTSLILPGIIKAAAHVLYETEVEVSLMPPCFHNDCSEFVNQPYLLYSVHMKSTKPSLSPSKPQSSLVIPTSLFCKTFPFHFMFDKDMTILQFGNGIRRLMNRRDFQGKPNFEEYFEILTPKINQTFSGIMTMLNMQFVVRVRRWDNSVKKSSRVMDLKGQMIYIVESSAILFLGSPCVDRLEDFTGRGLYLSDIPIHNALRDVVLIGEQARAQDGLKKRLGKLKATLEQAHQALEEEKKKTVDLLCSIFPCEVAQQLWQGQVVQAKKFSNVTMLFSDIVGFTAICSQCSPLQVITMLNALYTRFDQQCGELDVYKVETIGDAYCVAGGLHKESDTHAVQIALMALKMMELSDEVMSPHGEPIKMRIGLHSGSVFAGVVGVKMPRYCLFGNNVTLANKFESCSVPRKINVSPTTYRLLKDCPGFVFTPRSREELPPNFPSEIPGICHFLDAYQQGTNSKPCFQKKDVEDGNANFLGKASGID
T1 sequence (Q02153 1-619): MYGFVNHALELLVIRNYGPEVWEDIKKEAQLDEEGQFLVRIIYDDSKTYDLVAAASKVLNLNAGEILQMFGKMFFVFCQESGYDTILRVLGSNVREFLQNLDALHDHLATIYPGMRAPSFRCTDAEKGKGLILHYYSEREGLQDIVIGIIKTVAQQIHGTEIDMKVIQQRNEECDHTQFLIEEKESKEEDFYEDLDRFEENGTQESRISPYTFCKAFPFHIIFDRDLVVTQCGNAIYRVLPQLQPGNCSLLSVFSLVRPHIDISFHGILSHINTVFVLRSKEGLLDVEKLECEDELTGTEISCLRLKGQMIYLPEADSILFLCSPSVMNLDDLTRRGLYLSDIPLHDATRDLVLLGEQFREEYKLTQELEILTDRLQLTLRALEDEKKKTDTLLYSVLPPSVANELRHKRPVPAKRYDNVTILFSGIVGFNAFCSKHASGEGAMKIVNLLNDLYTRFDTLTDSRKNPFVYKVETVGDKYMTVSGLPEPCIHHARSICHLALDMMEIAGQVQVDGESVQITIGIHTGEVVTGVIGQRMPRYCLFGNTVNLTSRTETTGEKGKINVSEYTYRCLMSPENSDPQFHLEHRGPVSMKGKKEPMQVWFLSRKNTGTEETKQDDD
Protocol: (§1) Data were normalized to a high control using the following equation: 100*(Sample—Low Control)/(High Control—Low Control), where the low control is the average of 16 samples treated with 1% DMSO, and the high control is the average of 16 samples treated with 30 μM of Compound Y depicted below. Data were fit using a 4-parameter fit (log(agonist) vs. response variable slope) using GraphPad Prism Software v.5. n=2 for all compounds. […] Compounds failing to elicit a minimum response of 50% are reported as >30 μM. For compounds run in duplicate or n higher than 2, the result herein given is the geometric mean of the several results obtained.
Human embryonic kidney cells (HEK293) cells expressing GloSensor™ 40F cGMP (Part No: CS182801, Promega) were used to evaluate the activity of test compounds. The luminescent biosensors (engineered luciferase) that were incorporated into these cells detect cGMP formed by the compounds stimulating the sGC enzyme and emit luminescence.
cGMP GloSensor cells were maintained in Dulbecco's Modification of Eagle's Medium (DMEM) supplemented with fetal bovine serum (FBS) (10% final) and hygromycine (200 μg/ml). The day before assay, cells were plated in DMEM with 10% FBS in a 50 μL volume at a density of 1.5×10^4 cells/well in a poly-D-lysine coated 384-well flat white-bottom plate (Corning Cat No 35661). Cells were incubated overnight at 37° C. in a humidified chamber with 5% CO2. The next day, medium was removed and cells were replaced with 40 μl/well of GloSensor™, […] (Promega Cat No E1291). Cells were treated for 90 minutes at 25° C. to allow the substrate to equilibrate in the cells. Test compounds and Diethylenetriamine NONOate (DETA-NONOate) was diluted to […] in serum-free CO2 independent medium and serally diluted at 4× dilutions to create 5× dose curve from which 10 ul was added to the wells (x uM concentration for test compound solution and 10 μM concentration for DETA-NONOate solution; wherein x is one of the following final concentrations).
For the kinetics studies, luminescense was measured right away for 0.2 sec per well with Envision (Perkin Elmer model No). For endpoint SAR screening, data were collected after 55 min incubation at room temperature.
Data analysis was carried out as indicated above in Example 2A.

[1] = biological target: T2, soluble guanylate cyclase (sGC) (Homo sapiens, UniProt Q02108+Q02153); experiment: sGC-HEK-cGMP assay with LC/MS detection (Example 2A); format: cell-based; conditions: HEK293 cells, 10 μM DETA-NONOate, 20 min; concentration eliciting 50% of high control response (30 μM Compound Y); read-out: Absolute EC50 (nM) - binned
T2 construct: endogenously expressing soluble guanylate cyclase (sGC); endogenous in cells; host or cells: HEK293
T2 sequence (Q02108 1-690): T1 sequence (Q02108 1-690)
T2 sequence (Q02153 1-619): T1 sequence (Q02153 1-619)
Protocol: Human embryonic kidney cells (HEK293), endogenously expressing soluble guanylate cyclase (sGC), were used to evaluate the activity of test compounds. Compounds stimulating the sGC enzyme should cause an increase in the intracellular concentration of cGMP. HEK 293 cells were seeded in Dulbecco's Modification of Eagle's Medium supplemented with fetal bovine serum (10% final) and penicillin (100 U/mL)/streptomycin (100 μg/mL) in a 50 μL, volume at a density of 1.5×10^4 cells/well in a poly-D-lysine coated 384 well flat bottom plate. Cells were incubated overnight at 37° C. in a humidified chamber with 5% CO2. Medium was aspirated and cells were washed with 1× Hank's Buffered Saline Salt Solution (50 μL). Cells were then incubated for 15 minutes at 37° C. with 50 μL of a 0.5 mM 3-isobutyl-1-methylxanthine (IBMX) solution. Test article and Diethylenetriamine NONOate (DETA-NONOate) solutions (x μM concentration for test article solution and 10 μM concentration for DETA-NONOate solution; wherein x is one of the following concentrations);
were then added to the assay mixture and the resulting mixture incubated at 37° C. for 20 minutes. After the 20 minute incubation, the assay mixture was aspirated and 10% acetic acid containing 150 ng/mL+3-cGMP (internal standard for LCMS) (50 μL) was added to the cells. The plate was incubated at 4° C. for 30 minutes in the acetic acid solution to stop the reaction and lyse the cells. The plates were then centrifuged at 1,000 g for 3 minutes at 4° C. and the supernatant transferred to a clean reaction plate for LCMS analysis.
cGMP concentrations were determined from each sample using the LCMS conditions below (Table 2) and calculated standard curve. The standard curve was prepared in 10% acetic acid with 150 ng/mL+3cGMP (isotopically labelled cGMP with a weight 3 units higher than wild type) with the following final concentrations of cGMP in ng/mL: 1, 5, 10, 50, 100, 250, 500, 1000, 2000.
as §1

[2] = tested on: lambs with acute pulmonary hypertension; conditions: inhaled microparticles, awake lambs, cited from earlier work; for pulmonary vasodilation: U-46619 infusion to mean pulmonary arterial pressure 35 mm Hg; for effect on mean arterial pressure / transpulmonary cGMP release / systemic arterial oxygenation: U-46619 infusion
obese mice = conditions: cited from earlier work
[3] = tested on: Guinea pig tracheal smooth muscle; experiment: Electrical field stimulated guinea pig tracheal smooth muscle contraction (ex vivo); conditions: sub-maximal EFS, cumulative dose response curve, three animals pooled; 95% Cl 0.78-0.94; read-out: IC50 (inhibition of EFS-induced baseline contraction)
Description: Electrical Field Stimulated Guinea Pig Tracheal Smooth Muscle In Vitro (ex vivo) Model for the Assessment of Bronchodilation.
Animals: Guinea pig, Dunkin Hartley, male, Full barrier-bred and certified free of specific micro-organisms on receipt 525-609 g on the experimental day, Harlan UK Ltd. Guinea pigs are housed in a group of 4 in solid-bottomed cages with Gold Flake bedding in a controlled environment (airflow, temperature and humidity). Food (FD1, Special Diet Services) and water are provided ad libitum.
On each experimental day, a guinea pig is killed by exposure to a rising concentration of CO2 and the trachea removed. […] Tissues are washed with Kreb's buffer and stimulated using the previously determined sub-maximal voltage for 1 hour to establish a stable baseline contraction prior to assessment of compound activity.
A cumulative dose response curve (DRC) to each test substance is then performed and changes in smooth muscle contraction measured. The effect of each test substance in each experiment is expressed as a percentage inhibition of the baseline contraction, normalized to the relevant vehicle controls. […] The data from all three experiments are pooled, the DRC plotted, and the test substance potency and efficacy determined.

SMILES | EC50 [1] | pulmonary vasodilation [2] | effect on mean arterial pressure [2] | transpulmonary cGMP release [2] | also measured
Cc1cc(-c2ncc3c(n2)NC(=O)C3(C)C)nn1Cc1ccccc1F [Compound I-72] | > 1000 nM | – | – | – | EC50 (sGC enzyme): < 100 nM and 100 to 1000 nM
Nc1nc(-c2nn(Cc3ccccc3F)c3ncccc23)ncc1C1CC1 [BAY 41-2272] | – | dose dependent pulmonary vasodilation | without significant effect | increased transpulmonary cGMP release | –
Cc1cc(-c2nc(N)c3c(n2)NC(=O)C3(C)C)nn1Cc1ccccc1F [Compound I-71, 4-amino-2-(1-(2-fluorobenzyl)-5-methyl-1H-pyrazol-3-yl)-5,5-dimethyl-5H-pyrrolo[2,3-d]pyrimidin-6(7H)-one] | > 1000 nM | – | – | – | EC50 (sGC enzyme): 100 to 1000 nM
O=C(O)CCCCN(CCc1cc(F)ccc1OCc1ccc(-c2ccc(C(F)(F)F)cc2)cc1)Cc1ccc(C(=O)O)cc1 [BAY 60-2770] | – | – | – | – | effect on overactive bladder (obese mice): ameliorates overactive bladder
CC(C)[N+]1(C)[C@@H]2CC[C@H]1CC(OC(=O)C(CO)c1ccccc1)C2 (stereo partly drawn) [Ipratropium bromide] | – | – | – | – | IC50 [3]: 0.86 nM
O=C(O)CCCCN(CCc1ccccc1OCc1ccc(CCc2ccccc2)cc1)Cc1ccc(C(=O)O)cc1 [BAY 58-2667] | – | dose dependent pulmonary vasodilation | without significant effect | increased transpulmonary cGMP release | systemic arterial oxygenation [2]: increased systemic arterial oxygenation
Nc1nc(-c2nn(Cc3ccccc3F)c3ncccc23)nc(N)c1N1CCOCC1 [BAY 41-8543] | – | dose dependent pulmonary vasodilation | without significant effect | increased transpulmonary cGMP release | systemic arterial oxygenation [2]: increased systemic arterial oxygenation
CCOC(=O)C1(C)C(=O)Nc2nc(-c3cc(C(C)=O)n(Cc4ccccc4F)n3)nc(N)c21 (stereo not drawn) [Compound I-19] | < 100 nM | – | – | – | –
